The subject of the assay is vancomycin resistant E.faecium (VRE). The assay is described as follows: In vitro proliferation inhibition of E. faecium (OD600). In kind it is cell-based. Conditions: pH 7.5; 10 µg/mL V-161, 1 µg/mL niclosamide, alone or in combination; NaTY medium, 37°C, 13 hours; OD600 (Fig. 2).

Regarding `Cc1ccc2[nH]c(-c3ccc(N(C)C)cc3)nc2c1` [Example V-161, N,N-dimethyl-4-(5-methyl-1H-benzo[d]imidazol-2-yl)aniline], the proliferation of bacteria result is given as “not completely inhibited”.

`O=C(Nc1ccc([N+](=O)[O-])cc1Cl)c1cc(Cl)ccc1O` [niclosamide, 5-chloro-2-hydroxy-N-(2-chloro-4-nitrophenyl)benzamide]: the proliferation of bacteria result was “not completely inhibited”.

The values above are taken from patent EP4652995A1, “ANTIBACTERIAL COMPOSITION, PHARMACEUTICAL AGENT, AND ANTIBACTERIAL METHOD” (priority 2023, dated 2024).
